One test concerns sound-induced seizures. Kind of test: Frings audiogenic seizure-susceptible mouse model of reflex epilepsy. It is filed as in vivo.
From the text: (§1) The ability of individual modified peptides to prevent seizures induced by sound in the AGS-susceptible Frings mouse model can be assessed at the time of peak effect (White et al., 1992). For this test, individual mice are placed into a plexiglass cylinder (diameter, 15 cm; height, 18 cm) fitted with an audio transducer (Model AS-ZC; FET Research and Development, Salt Lake City, Utah), and exposed to a sound stimulus of 110 decibels (11 KHz) delivered for 20 seconds. Sound-induced seizures are characterized by wild running followed by loss of righting reflex with forelimb and hindlimb tonic extension. Mice not displaying hindlimb tonic extension are considered protected.
The two modified galanin analogs (GAL-BBB1 and GAL-BBB2) were administered i.p. to a group of Frings audiogenic seizure susceptible mice in a dose of 4 mg/kg. At various times after administration (i.e., 15, 30, 60, 120, and 240 min) each mouse was placed into a cylindrical test chamber fitted with an audio transducer and challenged with a high-intensity sound stimulus (110 dB, 11 KHz for 20 sec). Animals not displaying tonic hind-limb extension were considered protected. […] In a subsequent study, anticonvulsant efficacy was quantitated at the time to peak effect (i.e., 1 h) in a dose-response study.
as §1, with “analogs” for “peptides”
At various times after administration (i.e., 15, 30, 60, 120, and 240 min) each mouse was placed into a cylindrical test chamber fitted with an audio transducer and challenged with a high-intensity sound stimulus (110 dB, 11 KHz for 20 sec).

The test system of test [1] is formalin-induced paw licking. Kind of test: Mouse formalin test of inflammatory pain. Conditions: for phase II response at the active dose: mouse formalin assay; for Active at: mouse formalin assay of inflammatory pain; for potency in mouse formalin assay: in vivo. It counts as in vivo. The method, then:
An injection of 0.5% formalin is made into the planter region of a mouse right hind paw. This elicits a distinct biphasic behavioral profile characterized by the mouse licking the affected paw. Immediately following the injection the mouse licks the paw for about 10 minutes. This is phase 1 (acute) and is followed by a brief latent period where there is little behavioral activity. A more prolonged period of about 20 to 30 minutes of paw licking ensues which constitutes phase 2 (inflammatory).
Prior to the administration of the active peptide, drug or vehicle each mouse undergoes a 15-minute conditioning period in one of several 6″ tall plexiglass observation tubes (4″ diameter) that are placed in front of a mirror. […] One hour after treatment, formalin was injected sub-dermally (20 μl; 27 gauge needle) into the plantar surface of the right hind foot. The bevel of the needle is placed facing down toward the skin surface. Following the injection of the formalin each animal is observed for first 2 minutes of each 5 minute epoch for a total of 45 minutes. The cumulative length of licking for each 2 minute time period was measured. An animal receiving the requisite volume of vehicle was alternated with each mouse given GAL-BBB2, Gal 1-16, or gabapentin. Animals were euthanized following the conclusion of the experiment.
Area under the curve (AUC) determination was made using the GraphPad Prism Version 3.03. Total AUC is calculated for both the test and control groups for both the acute and inflammatory phases. The AUC for individual animals for each phase is also calculated and converted to percentage of total AUC of control. The average percentages and SEM for both the drug treated and control were calculated and tested for significant difference.

In the next test the test system is 6 Hz limbic seizures. Kind of test: 6 Hz limbic (psychomotor) seizure test. It counts as in vivo, mouse. Conditions: for ED50 in the 6 Hz limbic seizure model (in Table 14 in parentheses) / ED50: i.p.; for ED50 in the 6 Hz limbic seizure model (in Table 14 in parentheses): SAR analogs; for % Protection at 30 min (4 mg/kg, i.p.): octreotide and DSIP analogs; for effect against 6 Hz (22 mA) limbic seizures: administered into the ventricular space, CF-1 mice; for ED50: Mus musculus, ip; for % Protection at 1, 2 and 4 hours afforded by a dose of 4 mg/kg, i.p. (result in words): all time points. The text has this:
Mice not displaying limbic seizures were considered protected.
As mentioned above, the 6 Hz seizure becomes more resistant to block by antiepileptic drugs as the current is increased from 22 mA to 44 mA.

Setting [2] is: stimulus intensity 22 mA, read-out: 22 mA (ED50, 6 Hz model).
The mark [3] stands for this setting: stimulus intensity 32 mA, read-out: 32 mA (ED50, 6 Hz model).
Setting [4] is: stimulus intensity 44 mA, read-out: 44 mA (ED50, 6 Hz model).

Values joined by “and” are separate entries in the source; they are usually repeats but may differ in a detail not shown here. Equal values may be shown once. “Also recorded” adds a separate entry of the source. Read-outs that look alike come from different tables or passages of the source. Square brackets hold non-standard residues; d marks the D form. Ends that are not written are not given here. Ahx = NCCCCCC(=O)O Some results are limits rather than exact numbers.

On to “Sar-Trp-Thr-Leu-Asn-Ser-Ala-Gly-Tyr-Leu-Leu-Gly-Pro-His-(Lys-palm)-Tle-NH2 [GAL-BBB1]”, for which the “anticonvulsant activity (protection from tonic hind-limb extension)” value in the test on sound-induced seizures (4 mg/kg i.p., 15-240 min, also higher dose of 12 mg/kg) was “not active at any time point tested”.

(Sar)WTLNSAGYKK(Lys-P)K [NAX 306-3]: in test [1], the “phase II response at the active dose” value is given as “(“flat phase II”)”, the Active at stood at 2.7 mg/kg and the “potency in mouse formalin assay” value is listed as “potent”. In addition, in the test with 6 Hz limbic seizures (4 mg/kg i.p.), the “% Protection at 2 hours afforded by a dose of 4 mg/kg, i.p.” value (shortened to “% Protection at 2 hours afforded … i.p.”) was 25% and the “% Protection at 4 hours afforded by a dose of 4 mg/kg, i.p.” value (shortened to “% Protection at 4 hours afforded … i.p.”) is 0%. The “ED50 in the 6 Hz limbic seizure model (in Table 14 in parentheses)” value (shortened to “ED50 in the 6 Hz limbic seizure model”) with 6 Hz limbic seizures was “(2.7 mg/kg)”.

Consider WAGGDFSGE [DSIP, reference compound], for which the “% Protection at 30 min (4 mg/kg, i.p.)” value in the test on 6 Hz limbic seizures (4 mg/kg i.p.) was found to be 0%. Moreover, the “effect against 6 Hz (22 mA) limbic seizures” value with 6 Hz limbic seizures is “effective”.

With `Nc1nnc(-c2cccc(Cl)c2Cl)c(N)n1` [Lamotrigine, reference compound], the 50% effective dose (ED50) (as a rule, the midpoint of the dose-response relation) with 6 Hz limbic seizures (setting [2]) was 4.4 mg/kg; with 6 Hz limbic seizures (setting [3]), > 60 mg/kg; in the test with 6 Hz limbic seizures (setting [4]) it was > 60 mg/kg.

For the molecule “(Sar)WTLNSAGYLLGPRR(Lys-P)R [NAX 1205-3]”, in the test with 6 Hz limbic seizures (4 mg/kg i.p.), the “% Protection at 2 hours afforded … i.p.” value is reported as 75% and the “% Protection at 4 hours afforded … i.p.” value is reported as 0%.

Take “(Sar)WTLNSAGY(Ahx)KK(Lys-P)K [NAX 306-4]”: the “activity in the second response phase of the inflammatory pain assay” value in test [1] (2.95 mg/kg) is listed as “very active”. Besides, in test [1], the “phase II response at the active dose” value is given as “(“flat phase II”)”, the Active at is recorded as 2.9 mg/kg and the “potency in mouse formalin assay” value was “potent”. In the test on 6 Hz limbic seizures (4 mg/kg i.p., 4 mg/kg), the “% Protection at 2 hours afforded … i.p.” value is 0% and 0%, 0%; the “% Protection at 4 hours afforded … i.p.” value was 0% and 0%, 0%. Moreover, in the test on 6 Hz limbic seizures, the “ED50 in the 6 Hz limbic seizure model” value was “(2.95 mg/kg)”.

Consider `O=C1NC(=O)C(c2ccccc2)(c2ccccc2)N1` [Phenytoin, reference compound], for which the values for the 50% effective dose (ED50) in the test on 6 Hz limbic seizures (setting [2]), in the test on 6 Hz limbic seizures (setting [3]) and in the test on 6 Hz limbic seizures (setting [4]) were 9.4 mg/kg, > 60 mg/kg and > 60 mg/kg, respectively.

Take `C[C@H](N)C(=O)NCC(=O)N[C@H]1CSSC[C@@H](C(=O)O)NC(=O)[C@H](CO)NC(=O)[C@H]([C@@H](C)O)NC(=O)[C@H](Cc2ccccc2)NC(=O)[C@H]([C@@H](C)O)NC(=O)[C@H](CCCCN)NC(=O)[C@H](Cc2c[nH]c3ccccc23)NC(=O)[C@H](Cc2ccccc2)NC(=O)[C@H](Cc2ccccc2)NC(=O)[C@H](CC(N)=O)NC(=O)[C@H](CCCCN)NC1=O` [somatostatin, reference compound]: the “effect against 6 Hz (22 mA) limbic seizures” value with 6 Hz limbic seizures is listed as “effective”.

For “Lys-Lys-Lys(palm)-Lys-Ahx-DPhe-Cys-Phe-DTrp-Lys-Thr-Cys-Thr-NH2 [SEQ ID NO: 149]”, the “% Protection at 30 min (4 mg/kg, i.p.)” value in the test on 6 Hz limbic seizures (4 mg/kg i.p.) is given as 100%.

In the case of `CCCC(CCC)C(=O)O` [Valproic acid, reference compound], the values for the ED50 with 6 Hz limbic seizures (setting [2]) and with 6 Hz limbic seizures (setting [4]) were 41.5 mg/kg and 310 mg/kg, respectively.

In the case of “DPhe-Cys-Phe-DTrp-Lys-Thr-Cys-Thr-NH2 [SEQ ID NO: 148, reference compound]”, in the test on 6 Hz limbic seizures (4 mg/kg i.p.), the “% Protection at 30 min (4 mg/kg, i.p.)” value amounted to 50%.

As to (Sar)WTLNSAGYLLGPHA(Lys-P) [NAX 306-5], in the test with 6 Hz limbic seizures (4 mg/kg i.p.), the “% Protection at 1, 2 and 4 hours afforded by a dose of 4 mg/kg, i.p. (result in words)” value is reported as “Not active”.

For the molecule `CCC1(C)CC(=O)NC1=O` (centres unmarked) [Ethosuximide, reference compound], the ED50 with 6 Hz limbic seizures (setting [2]) was determined as 86.9 mg/kg; in the test with 6 Hz limbic seizures (setting [3]) it was 167 mg/kg; in the test on 6 Hz limbic seizures (setting [4]), 600 mg/kg.

Consider “GWTLNSAGYLLGPHAV [Gal(1-16), reference compound]”, for which the “anticonvulsant activity of native fragment” value in the test with sound-induced seizures (20 mg/kg i.p.) is “inactive; also recorded: but not the native GAL(1-16) fragment (20 mg/kg) was effective”. Besides, the “activity of native fragment in formalin test” value in test [1] (20 mg/kg i.p.) is “inactive”. In addition, in the test on 6 Hz limbic seizures (4 mg/kg i.p.), the “% Protection at 1, 2 and 4 hours afforded by a dose of 4 mg/kg, i.p. (result in words)” value is given as “Not active”. Further, the “ED50 following i.c.v. administration” value in the test on 6 Hz limbic seizures (intracerebroventricular, 6 Hz (32 mA)) was found to be 1.7 nmol.

In the case of “(Sar)WTLNSAGYLLGPDKDK(Lys-P)DK [NAX 1205-2]”, in the test with 6 Hz limbic seizures (4 mg/kg i.p.), the “% Protection at 2 hours afforded … i.p.” value was determined as 50% and the “% Protection at 4 hours afforded … i.p.” value is 75%. The “ED50 in the 6 Hz limbic seizure model” value in the test with 6 Hz limbic seizures is reported as “(1.2 mg/kg)”.

On to (Sar)WTLNSAGYLLKK(Lys-P)K [NAX 1205-5], for which, in the test on 6 Hz limbic seizures (4 mg/kg i.p.), the “% Protection at 2 hours afforded … i.p.” value worked out at 25% and the “% Protection at 4 hours afforded … i.p.” value is reported as 0%.

As for [Ahx]GGWAGGDFSGE [SEQ ID NO: 142], the “% Protection at 30 min (4 mg/kg, i.p.)” value in the test on 6 Hz limbic seizures (4 mg/kg i.p.) was 50%. For the same molecule, the “% Protection after 2 hours” value with 6 Hz limbic seizures (2 hours, 4 mg/kg i.p.) is recorded as “NO: 142) (100% after 2 hours)”.

(Values after US9586999B2, “Methods and compositions related to improving properties of pharmacological agents targeting nervous system” (University of Utah Research Foundation, priority 2006, dated 2017).)
